Assay results from patent US20030158152A1, “Protease inhibitors and their pharmaceutical uses” (priority 2000, published 2003).

These compounds were tested on HIV-1 (isolated standard virus Z2Z6) in PM1 cells (assay: Anti-HIV evaluation in HIV-1-infected PM1 lymphocytic cell culture, cell viability read by MTT technique). Conditions: 10^4 cells/well, infected with HIV-1 isolate Z2Z6 at MOI 0.002, MTT cellular viability on 6th day after infection, cut-off 50% of emission of uninfected cells.
Type: cell-based
Method: The pharmacological evaluation of the derivatives obtained was undertaken using test plates with a PM1 strain cell culture, lymphocytic strain established in culture, expressing the receptors CD4+ and co-receptors C5 and R4 of the HIV-1 and producers of syncytium, incubated with isolated standard virus Z2Z6 purified by passage in cell culture PM-1, having a titer of 3.96×10^2 TCID50/ml. The infection was accomplished by using plates having 96 wells, each containing 10^4 cells/well, infected with a MOI (Multiplicity Of Infection) of 0.002. The compounds being evaluated were initially diluted in dimethylsulphoxide (DMSO) to a final concentration of 10 mM and subsequently diluted in base medium RPMI 1640 to 20 μM.
Nine wells of the cells infected initially with the isolated HIV Z6 were exposed to decreasing concentrations of the compounds at 20 μM by a factor of 2 (base log 2). The culture medium employed was the RPMI 1640, added with 10% bovine foetal serum, antibiotics […]/penicilyne and L-glutamine.
The last and tenth well was kept as a control of the infection, without the presence of the drug blank. Each line of ten wells was produced in triplicate, for posterior statistical analysis. INDINAVIR was used as control, in the same dilutions as the compounds being tested. Cytotoxic analysis was carried out on a fourth set of 10 (ten) wells with cells by applying the compounds of the present invention diluted as described hereinabove. The plates were kept in an oven with 5% CO2, at a temperature of 37° C. and verified daily by optical phase microscopy for the analysis of the occurance of syncytia, which was confirmed on the 4th day after infection.
The results were analysed using a Microsoft Excel matrix, with correction of the blanks, and plotting of the emission frequency graph of the assay (in percentage, using as the 100% standard the emission from the viable cells of the wells without infection) as measurement of cellular viability. The value of 50% of emission of the standard was considered as cut-off point for the IC50 calculation. This value was attained, after plotting on the graph of the logarithmic regression curve equation, the points obtained from the IC curve prior to the formation of the plateau of the curve.
With `CC(O)C(C)O` (stereo not shown) [Compound 11b] the IC50 was > 100 µM.

Same assay, conditions: 10^4 cells/well, infected with HIV-1 isolate Z2Z6 at MOI 0.002, MTT cellular viability on 6th day after infection, cut-off 50% of emission of uninfected cells, read-out: IC50
`CCOC(=O)[C@H](Cc1ccccc1)NC(=O)[C@H](O)[C@@H](O)C(=O)N[C@@H](Cc1ccccc1)C(=O)OCC` [Compound 19, 1N,4N-di[1-carbetoxy-2-phenyl-(1S)-ethyl]-2,3-dihydroxy-(2R,3R)-butanediamide] was tested, and the IC50 was > 100 µM. In the case of `O=C(NCc1ccccc1)[C@H](Cc1ccccc1)NC(=O)[C@@H](O)[C@H](O)C(=O)N[C@@H](Cc1ccccc1)C(=O)NCc1ccccc1` [Compound 15, 1N,4N-di[1-carbonylbenzylamine-2-phenyl-(1S)-ethyl]-2,3-dihydroxy-(2S,3S)-butanediamide], the IC50 is reported as > 100 µM. With `CCOC(=O)[C@@H](NC(=O)[C@@H](O)[C@H](O)C(=O)N[C@H](C(=O)OCC)[C@@H](C)CC)[C@@H](C)CC` [Compound 3d, 1N,4N-di[1-carbetoxy-2-methyl-(1S,2S)-butyl]-2,3-dihydroxy-(2S,35)-butanediamide] the IC50 was > 100 µM. With “1N,4N-di[2-(4-hydroxyphenyl)-1-carbetoxy-1-(1S)-ethyl]-2,3-dihydroxy-(2S,3S)-butanediamide [Compound 3f]” the IC50 was 50 µM. In the case of `CCOC(=O)[C@H](Cc1ccccc1)NC(=O)[C@H](OC(C)=O)[C@@H](OC(C)=O)C(=O)N[C@@H](Cc1ccccc1)C(=O)OCC` [Compound 18, 1N,4N-di[1-carbetoxy-2-phenyl-(1S)-ethyl]-2,3-diacetoxy-(2R,3R)-butanediamide], the IC50 is reported as > 100 µM. With “1,4-di(benzylamine)-(2S,3S)-butane-2,3-diol [Compound 2a]” the IC50 was > 100 µM. `O=C(NCc1ccccc1)[C@@H](O)[C@H](O)C(=O)NCc1ccccc1` [Compound 1a, 1N,4N-dibenzyl-2,3-dihydroxy-(2S,3S)-butanediamide] was tested, and the IC50 was > 100 µM. With `CCOC(=O)[C@H](C)NC(=O)[C@@H](O)[C@H](O)C(=O)N[C@@H](C)C(=O)OCC` [Compound 3a, 1N,4N-di[1-carbetoxy-(1S)-ethyl]-2,3-dihydroxy-(2S,3S)-butanediamide] the IC50 was > 100 µM. Compound “1N,4N-di[-carbetoxy-2-phenyl-(1S)-ethyl]-2,3-diacetoxy-(2S,3S)-butanediamide [Compound 10e]” has an IC50 of 50 µM. In the case of “1N,4N-di[1-carbetoxy-3-methyl-(1S)-butyl]-2,3-dihydroxy-(2S,3S)-butanediamide [Compound 3c]”, the IC50 is reported as 10 µM. In the case of `O=C(NCc1ccccc1)[C@H](O)[C@@H](O)C(=O)NCc1ccccc1` [Compound 21, 1N,4N-dibenzyl-2,3-dihydroxy-(2R,3R)-butanediamide], the IC50 is reported as > 100 µM. With `CC(=O)O[C@H](C(=O)NCc1ccccc1)[C@H](OC(C)=O)C(=O)NCc1ccccc1` [Compound 8a, 1N,4N-dibenzyl-2,3-diacetoxy-(2S,3S)-butanediamide] the IC50 was > 100 µM. In the case of `O[C@H](CNCc1ccccc1)[C@H](O)CNCc1ccccc1` [Compound 22, 1,4-di(benzylamine)-(2R,3R)-butane-2,3-diol], the IC50 is reported as > 100 µM. “1N,4N-di[1-carbetoxy-2-(1H-3-indoyl)-(1S)-ethyl]-2,3-dihydroxy-(2S,3S)-butanediamide [Compound 3g]” was tested, and the IC50 was > 100 µM. With `NNC(=O)[C@H](Cc1ccccc1)NC(=O)[C@@H](O)[C@H](O)C(=O)N[C@@H](Cc1ccccc1)C(=O)NN` [Compound 14e, 1N,4N-di[1-carbonylhydrazine-2-phenyl-(1S)-ethyl]-2,3-dihydroxy-(2S,3S)-butanediamide] the IC50 was > 100 µM. For “1N,4N-di[1-carbetoxy-2-methyl-(1S)-propyl]-2,3-dihydroxy-(2S,3S)-butanediamide [Compound 3b]”, the IC50 was > 100 µM. With `CC(=O)O[C@@H](C(=O)NCc1ccccc1)[C@@H](OC(C)=O)C(=O)NCc1ccccc1` [Compound 20, 1N,4N-dibenzyl-2,3-diacetoxy-(2R,3R)-butanediamide] the IC50 was > 100 µM. For “1N,4N-di[1-carbetoxy-2-phenyl-(1S)-ethyl]-2,3-dihydroxy-(2S,3S)-butanediamide [Compound 3e]”, the IC50 was > 100 µM.
